Read-outs that look alike come from different tables or passages of the source.
Legend:
Format in all cases: in vivo
[1] = test system: larvae of the mustard beetle (Phaedon cochleariae); test: Phaedon cochleariae larvae test; conditions: for Kill in % after 2^d: sprayed cabbage leaves
[2] = test system: green peach aphid (Myzus persicae); test: Myzus persicae test; conditions: 24 h, read-out: Kill in % after 1^d
Description: (§1) • Solvents: 78 parts by weight of acetone 1.5 parts by weight of dimethylformamide • Emulsifier: 0.5 part by weight of alkylaryl polyglycol ether
(§2) To produce a suitable preparation of active compound, 1 part by weight of active compound is mixed with the stated amount of solvent and emulsifier, and the concentrate is diluted with emulsifier-containing water to the desired concentration.
Cabbage leaves (Brassica oleracea) which are heavily infested by the green peach aphid (Myzus persicae) are treated by spraying with the active compound preparation of the desired concentration.
After the desired period of time, the kill in % is determined 100% means that all of the aphids have been killed; 0% means that none of the aphids have been killed. The kill rates determined are entered into Colby's formula (see above).

[3] = test system: greenhouse red spider mite (Tetranychus urticae); test: Tetranychus urticae test (OP-resistant/spray treatment)
Description: as §1, §2
Discs of bean leaves (Phaseolus vulgaris) which are infested by all stages of the greenhouse red spider mite (Tetranychus urticae) are sprayed with an active compound preparation of the desired concentration.
After the desired period of time, the effect in % is determined. 100% means that all of the spider mites have been killed; 0% means that none of the spider mites have been killed.

[4] = test system: larvae of the armyworm (Spodoptera frugiperda); test: Spodoptera frugiperda test; conditions: sprayed cabbage leaves
[5] = Phaedon cochleariae, 144 h, single active compound, 200 g/ha, 6 d, read-out: Kill in % after 6 d
[6] = 200 g/ha, spray on infested cabbage leaves, after 1 d
[7] = Phaedon cochleariae, 144 h, single active compound, 20 g/ha, 6 d, read-out: Kill in % after 6 d
[8] = Phaedon cochleariae, 144 h, single active compound, 100 g/ha, 6 d, read-out: Kill in % after 6 d
[9] = Tetranychus urticae, 144 h, single active compound, 100 g/ha, 6 d, read-out: Kill in % after 6 d
[10] = Tetranychus urticae, 144 h, read-out: Kill in % after 6 d
[11] = single active compound, 100 g/ha
[12] = single active compound, 500 g/ha, 6 d
[13] = single active compound, 200 g/ha

| SMILES | pest or weed control at 200 g/ha [1, 5] | pest or weed control at 200 g/ha ([2]; in Brassica oleracea) | pest or weed control at 200 g/ha [3, 10] | other results |
| --- | --- | --- | --- | --- |
| Cc1nn(C)c(F)c1C(=O)Nc1ccccc1C(C)CC(C)C (stereo not drawn) [N-[2-(1,3-dimethylbutyl)phenyl]-5-fluoro-1,3-dimethyl-1H-pyrazole-4-carboxamide] | 0% |  |  | pest or weed control at 200 g/ha [2, 6]: 0% |
| CO/C=C(/C(=O)OC)c1ccccc1Oc1cc(Oc2ccccc2C#N)ncn1 [azoxystrobin] |  |  |  | pest or weed control at 500 g/ha ([1]; Phaedon cochleariae, 144 h, single active compound, 500 g/ha, 6 d, read-out: Kill in % after 6 d): 0% |
| O=C1C=C(N(CCF)Cc2ccc(Cl)nc2)CO1 [compound (I-4), 4-{[(6-chloropyrid-3-yl)methyl](2-fluoroethyl)amino}furan-2(5H)-one] |  |  |  | Kill in % after 2^d ([1]; 20 g/ha): 0%; pest or weed control at 20 g/ha [1, 7]: 0%; pest or weed control at 100 g/ha [1, 8]: 17%; pest or weed control at 0.8 g/ha ([2]; 0.8 g/ha, spray on infested cabbage leaves, after 1 d): 50%; pest or weed control at 4 g/ha ([3]; Tetranychus urticae, 144 h, single active compound, 4 g/ha, 6 d, read-out: Kill in % after 6 d): 50%; pest or weed control at 100 g/ha [3, 9]: 80% |
| O=C1C=C(N(Cc2ccc(Cl)nc2)CC(F)F)CO1 [compound (I-5), 4-{[(6-chloropyrid-3-yl)methyl](2,2-difluoroethyl)amino}furan-2(5H)-one] |  |  |  | Kill in % after 2^d ([1]; 20 g/ha): 0%; pest or weed control at 20 g/ha [1, 7]: 0%; pest or weed control at 100 g/ha [1, 8]: 50%; pest or weed control at 0.8 g/ha ([2]; in Brassica oleracea): 50%; pest or weed control at 100 g/ha [3, 10]: 0%; Kill in % after 2 d [3, 11]: 20% |
| CN(Cc1cnc(Cl)c(F)c1)C1=CC(=O)OC1 [compound (I-6), 4-{[(6-chloro-5-fluorpyrid-3-yl)methyl](methyl)amino}furan-2(5H)-one] |  |  |  | Kill in % after 2^d ([1]; 100 g/ha): 33%; pest or weed control at 20 g/ha [1, 7]: 0%; pest or weed control at 100 g/ha [1, 8]: 67%; pest or weed control at 100 g/ha [3, 9]: 0%; Kill in % after 2 d [3, 11]: 0%; Kill in % after 6^d ([4]; 100 g/ha): 0% |
| CSC1=N[C@@](C)(c2ccccc2)C(=O)N1Nc1ccccc1 [fenamidone] |  | 0% |  | Kill in % after 2^d ([1]; 200 g/ha): 0% |
| N#Cc1c[nH]cc1-c1cccc2c1OC(F)(F)O2 [fludioxonil] | 17% | 0% | 0% |  |
| O=C(NCc1ncc(C(F)(F)F)cc1Cl)c1c(Cl)cccc1Cl [fluopicolide] |  |  |  | Kill in % after 6 d [1, 12]: 0%; Kill in % after 6 d [3, 12]: 0% |
| O=C(NCCc1ncc(C(F)(F)F)cc1Cl)c1ccccc1C(F)(F)F [fluopyram, N-[2-[3-chloro-5-(trifluoromethyl)-2-pyridinyl]ethyl]-2-(trifluoromethyl)benzamide] | 0% | 0% | 0% |  |
| CC(C)NC(=O)N1CC(=O)N(c2cc(Cl)cc(Cl)c2)C1=O [iprodione] | 0% | 0% | 50% |  |
| Cc1ccc(C(C)NC(=O)[C@@H](NC(=O)OC(C)C)C(C)C)cc1 (stereo partly drawn) [iprovalicarb] | 0% |  | 0% |  |
| N#Cc1ccccc1NC(=O)c1snc(Cl)c1Cl [isotianil] | 0% | 0% | 0% |  |
| COCC(=O)N(c1c(C)cccc1C)C(C)C(=O)OC (stereo not drawn) [metalaxyl] | 0% | 0% | 0% |  |
| CCCOC(=O)NCCCN(C)C [propamocarb] |  |  |  | pest or weed control at 200 g/ha [2, 6]: 0%; pest or weed control at 200 g/ha ([3]; Tetranychus urticae, 144 h, single active compound, 200 g/ha, 6 d, read-out: Kill in % after 6 d): 0%; Kill in % after 2 d [3, 13]: 0% |
| OC(Cc1ccccc1Cl)(Cn1ncnc1S)C1(Cl)CC1 (stereo not drawn) [prothioconazole] |  | 0% | 0% | Kill in % after 2^d ([1]; 200 g/ha): 0% |
| CC(C)(C)C(O)(CCc1ccc(Cl)cc1)Cn1cncn1 (stereo not drawn) [tebuconazole] | 0% | 0% | 70% |  |
| Cc1ccc(N(SC(F)(Cl)Cl)S(=O)(=O)N(C)C)cc1 [tolylfluanid] | 17% | 0% |  | Kill in % after 6^d ([4]; 200 g/ha): 0% |
| CC(C)(C)C(O)C(Oc1ccc(Cl)cc1)n1cncn1 (stereo not drawn) [triadimenol] | 0% | 0% | 0% | Kill in % after 2 d [3, 13]: 0% |
| CO/N=C(/C(=O)OC)c1ccccc1CO/N=C(\C)c1cccc(C(F)(F)F)c1 [trifloxystrobin] | 33% |  |  | Kill in % after 2^d ([1]; 200 g/ha): 0% |
